# Data published in patent US20260125357A1, “LACTATE ENHANCING COMPOUNDS AND USES THEREOF” (GLIAPHARM SA, priority 2022, published 2026).
# Experiments:
# [1] = test system: human iPSC-derived astrocytes; assay: Release of lactate from human iPSC-derived astrocytes; assay type: cell-based; settings: treated for 1.5 hours
# Procedure: Secretion of L-lactate was measured in the extracellular medium of 96-well plated astrocytes after 90 min stimulation (at 37° C., in 5% CO2/95% air conditions) with Vehicle (DMSO), the compounds of the invention (100 nM to 100 μM) or positive control. […] Stimulation medium was composed of D5030 medium complemented with 5 mM D-glucose and 44 mM sodium bicarbonate, pH 7.2. To quantify lactate concentrations in the extracellular medium, 200 μl of a 0.2M Glycine-semicarbazide buffer (pH 10) containing 3 mM NAD and 14 U/ml LDH was added to each well of a 96-well plate containing 30 μl aliquots of extracellular medium. Samples were incubated at 37° C. for 1 h. Fluorescence intensity (340 nm excitation/450 nm emission), which represents the amount of NADH produced, was measured, and lactate concentration values were determined relative to a standard curve of L-lactate concentrations.
# Human iPSC-derived astrocytes were purchased from NCardia (NCyte Astrocytes) and were plated at a density of ˜10′000 cells/cm^2 in 96-well or 12-well plates, according to the manufacturer's instructions and using the recommended media. Experiments were performed at 7 days in vitro. Cells were treated for 1.5 hours with compound (2). Uptake of 2-DG and release of lactate were quantified as described previously.
# GLUT1-DS transgenic mice = assay: Lactate and glucose biosensors in GLUT1-DS transgenic mice; assay type: in vivo, mouse; settings: oral 10 mg/kg, vs vehicle
# From the text: Heterozygous transgenic mice on 129/SvJ genetic background in which glucose transporter 1 (GLUT1) has been knocked down were used (GLUT1(+/−)) (Wang et al., 2016, Human Molecular Genetics, 15(7)). GLUT1-deficiency syndrome (GLUT1-DS) is a prototypic hypometabolic diseases caused by the mutation of GLUT1 and decreased levels of glucose and lactate in the brain (Tang et al., 2019, Annals of Clinical and Translational Neurology 6(9)). Mating colonies were composed of wild-type female mice and GLUT1-DS male mice, or GLUT1-DS female mice and wild-type male mice. F1 pups were genotyped after ear punching at weaning using PCR to determine genotype. Mice of 2 to 3 months of age were used.
# Cerebral extracellular levels of lactate and glucose were monitored in vivo in GLUT1-DS transgenic male mice and wild-type (WT) male littermates using lactate and glucose biosensors (Pinnacle Technology), according to the manufacturer's instructions. […] After surgery, mice were monitored closely and received analgesic treatment for at least 4 days. After mice had fully recovered from surgery, compounds of the invention or vehicle were administered per os as previously described and cerebral levels of extracellular lactate or glucose were dynamically recorded for 6 hours using lactate or glucose biosensors, respectively. […]
# APOE4(+) transgenic mice = assay: Morris Water Maze memory in APOE4(+) mouse model of Alzheimer's disease; assay type: in vivo; settings: 30 mg/kg, 7 days after training
# From the text: Mouse models carrying the APOE4 human allele have a decrease in metabolic gene expression and cerebral glucose uptake compared to APOE3-expressing model (Williams et al., 2020, neurobiol dis, 136:104742; Lin et al., 2015, J Cereb Blood Flow Metabl, 37(1):217-226; Alata et al., 2015, J Cereb Blood Flow Metab, 35(1):86-94. These physiological perturbations induce a brain hypometabolism, which recapitulates brain metabolic status observed in AD carriers of APOE4 allele. Male and female APOE4(+) and APOE3(+) (controls) transgenic mice are used at 3 months of age. Memory of APOE3(+) mice treated with Veh and APOE4 (+) mice treated with Veh or compound (2) at 10 mg/kg and 30 mg/kg is tested in the Morris Water Maze, as described below. Treatment is administered at each day of training, 30 minutes before the first training session. No treatment is administered during memory retention test.
# Morris Water Maze (MWM), a well-established spatial and contextual memory test, will be used. […] A number of parameters including the latency to find the platform, time spent around the platform, path efficiency, % time spent in each quadrant is recorded, using automated tracking software (Ethovision). The type of exploration (direct, random, scan of the area) is also recorded. […]
structure (smiles),measurement,setting,value
"COc1cc2ccnc(Nc3ccc(S(C)(=O)=O)cc3)c2cc1OC [Compound 2, 6,7-dimethoxy-N-(4-methylsulfonylphenyl)isoquinolin-1-amine]",release of lactate,[1],increased
same,extracellular glucose levels in the brain,GLUT1-DS transgenic mice,significantly increases
same,extracellular lactate levels in the brain,GLUT1-DS transgenic mice,significantly increases extracellular lactate
same,memory in the Morris Water Maze,APOE4(+) transgenic mice,significant increase of memory
